Legend:
GABAB receptor sites = GABAB receptor sites (Homo sapiens, UniProt Q9UBS5); assay: affinity towards GABAB receptor sites; type: binding
lethality at high dose = type: in vivo; details: dose of 200 mg/kg i.p.
[1] = test system: phenylquinone writhing in mice; assay: analgesic activity, phenylquinone writhing in mice; type: in vivo; details: Mus musculus, po
[2] = test system: audiogenic seizures in DBA/2 mice; assay: anticonvulsant activity, audiogenic seizures in DBA/2 mice; type: in vivo; details: Mus musculus, ip, read-out: ID50-value, anticonvulsant (audiogenic seizures in DBA/2 mice)
rotarod mice = assay: muscle relaxant activity, rotarod mice; type: in vivo; details: Mus musculus, ip, read-out: ID50-value, muscle relaxant (rotarod mice)

Chain of GABAB receptor sites (Q9UBS5 15-961 limits assumed): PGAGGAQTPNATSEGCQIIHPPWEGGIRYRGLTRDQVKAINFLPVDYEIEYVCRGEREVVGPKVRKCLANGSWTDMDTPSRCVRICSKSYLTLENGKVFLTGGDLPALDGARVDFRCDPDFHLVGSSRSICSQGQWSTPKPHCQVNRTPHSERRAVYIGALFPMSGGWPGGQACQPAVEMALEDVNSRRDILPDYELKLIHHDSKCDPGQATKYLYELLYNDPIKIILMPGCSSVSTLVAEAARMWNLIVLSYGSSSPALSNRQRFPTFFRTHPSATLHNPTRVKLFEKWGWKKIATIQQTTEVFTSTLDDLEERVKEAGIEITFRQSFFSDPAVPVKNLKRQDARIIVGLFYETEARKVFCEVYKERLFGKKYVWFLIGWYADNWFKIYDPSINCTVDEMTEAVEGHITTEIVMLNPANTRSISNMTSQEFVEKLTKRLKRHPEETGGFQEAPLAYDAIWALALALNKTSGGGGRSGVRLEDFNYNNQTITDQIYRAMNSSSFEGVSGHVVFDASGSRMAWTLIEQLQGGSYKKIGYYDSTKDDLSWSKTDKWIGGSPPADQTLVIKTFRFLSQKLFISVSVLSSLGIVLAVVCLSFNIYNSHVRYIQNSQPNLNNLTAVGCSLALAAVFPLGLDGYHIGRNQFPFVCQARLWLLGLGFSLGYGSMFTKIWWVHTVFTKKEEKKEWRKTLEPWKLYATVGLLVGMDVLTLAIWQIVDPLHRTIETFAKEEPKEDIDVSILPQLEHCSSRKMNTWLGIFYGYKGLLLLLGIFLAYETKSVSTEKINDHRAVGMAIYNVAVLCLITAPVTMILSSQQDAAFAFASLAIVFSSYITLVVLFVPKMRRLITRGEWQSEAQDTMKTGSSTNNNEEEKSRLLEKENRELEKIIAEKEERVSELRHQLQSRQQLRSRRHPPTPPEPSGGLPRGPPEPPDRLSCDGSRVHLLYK
Chain of GABAB receptor sites (O75899 42-941 partner): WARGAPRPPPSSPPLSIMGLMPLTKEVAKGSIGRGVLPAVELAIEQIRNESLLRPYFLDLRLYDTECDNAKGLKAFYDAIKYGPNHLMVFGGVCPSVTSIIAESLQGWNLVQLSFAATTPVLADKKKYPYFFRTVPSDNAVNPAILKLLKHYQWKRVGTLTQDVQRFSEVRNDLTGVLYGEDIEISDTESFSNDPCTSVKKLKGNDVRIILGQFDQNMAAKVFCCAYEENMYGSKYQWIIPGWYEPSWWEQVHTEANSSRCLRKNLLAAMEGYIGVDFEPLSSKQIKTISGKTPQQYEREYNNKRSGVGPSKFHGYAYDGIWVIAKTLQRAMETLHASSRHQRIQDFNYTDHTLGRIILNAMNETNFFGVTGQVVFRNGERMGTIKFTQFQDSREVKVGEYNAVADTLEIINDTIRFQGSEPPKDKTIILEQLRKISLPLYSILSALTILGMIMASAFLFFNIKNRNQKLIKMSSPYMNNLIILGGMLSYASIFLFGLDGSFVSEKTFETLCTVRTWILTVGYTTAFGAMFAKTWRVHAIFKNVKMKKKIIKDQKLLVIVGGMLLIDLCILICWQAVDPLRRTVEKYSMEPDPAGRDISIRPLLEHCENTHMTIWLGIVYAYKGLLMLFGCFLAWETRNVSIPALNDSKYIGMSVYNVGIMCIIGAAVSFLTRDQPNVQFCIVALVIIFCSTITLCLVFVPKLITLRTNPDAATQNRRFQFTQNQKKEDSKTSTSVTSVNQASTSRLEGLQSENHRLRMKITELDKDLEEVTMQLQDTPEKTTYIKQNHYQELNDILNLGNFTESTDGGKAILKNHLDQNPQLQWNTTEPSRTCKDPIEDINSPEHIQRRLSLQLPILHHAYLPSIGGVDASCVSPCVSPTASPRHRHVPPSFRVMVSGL

Compound | activity relative to baclofen (times more pronounced) (GABAB receptor sites; compared with baclofen) | IC50 (GABAB receptor sites; read-out: IC50-value at the GABAB receptor site) [nM] | deaths (lethality at high dose) | ED50 [1] [mg/kg] | ED50 [2] [mg/kg] | ED50 (rotarod mice) [mg/kg]
NCCCP(O)O [Example 1, 3-aminopropylphosphonous acid] | at least 20 times | – | – | – | – | –
NCC(CP(O)O)c1ccc(Cl)cc1 (stereo not drawn) [Example 8, 3-amino-2-(4-chlorophenyl)propylphosphonous acid] | – | 35 | no deaths were observed | 4 | 6 | 6 to 9

From US5457095A, “Substituted propane-phosponous acid compounds” (Ciba-Geigy Corporation, priority 1984, dated 1995)
